This note sets out measurements from patent US9394290B2, “Selective CYP11B1 inhibitors for the treatment of cortisol dependent diseases” (UNIVERSITAET DES SAARLANDES CAMPUS SAARBRUECKEN, priority 2010, dated 2016).

One assay concerns the target human CYP17 (Homo sapiens (Human), UniProt P05093). The assay can be described thus: CYP17 inhibition assay (membrane fraction of E. coli expressing human CYP17, substrate progesterone). The assay is classed as biochemical. Conditions: 25 μM, inhibitor concentration 2.0 μM; for inhibition at 2 µM: read-out: inhibition (%) CYP 17. How it is done:
Recombinant E. coli pJL17/OR coexpressing human CYP17 and rat NADPH-P450-reductase were grown and stored as described by Ehmer et al. (J. Steroid Biochem. Mol. Biol., 2000, 75, 57-63)
For isolation of membrane fractions, 5 ml of bacterial suspension with an OD578 of 50 were washed using phosphate buffer (0.05 M, pH 7.4, 1 mM MgCl2, 0.1 mM EDTA and 0.1 mM dithiothreitol). Bacteria were harvested by centrifugation (2000×g) and the pellet was resuspended in 10 ml ice-cold TES buffer (0.1 M tris-acetate, pH 7.8, 0.5 mM EDTA, 0.5 M sucrose). Lysozyme was added with 10 ml of ice-cold water resulting in a concentration of 0.2 mg/ml followed by incubation for 30 min on ice with continuous shaking. Spheroplasts were harvested by centrifugation (12000×g, 10 min), and resuspended in 4 ml of ice-cold phosphate buffer (the same as described above plus 0.5 mM phenylmethylsulfonylfluoride (PMSF)).
After that spheroplasts were sonicated on ice (pulse 20 s on, 30 s off, five times), using a sonicator Sonopuls HD60 (Bandelin, Berlin, Germany) at maximum power. Unbroken cells and debris were pelleted at 3000×g for 7 min, and the supernatant was centrifuged at 50000×g for 20 min at 4° C. The membrane pellet was resuspended in 2 ml of phosphate buffer (the same as described above) with 20% glycerol using an ultra-turrax T25 (IKA-Labortechnik, Staufen, Germany). Protein concentration was determined by the method of Lowry.
The assay was performed as follows: a solution of 6.25 nmol progesterone (in 5 μl methanol) in 140 μl phosphate buffer (0.05 M, pH 7.4, 1 mM MgCl2, 0.1 mM EDTA and 0.1 mM dithiothreitol), 50 μl NADPH generating system (in phosphate buffer with 10 mM NADP, 100 mM glucose-6-phosphate and 2.5 units of glucose-6-phosphate-dehydrogenase) and inhibitor (in 5 μl DMSO) was pre-incubated at 37° C. for 5 min. Control cups were supplemented with 5 μl DMSO without inhibitor. The reaction was started by adding 50 μl of a 1:5 diluted membrane suspension in phosphate buffer (0.8-1.0 mg protein per ml). The maximum DMSO concentration in each sample was 2%. After mixing, incubation was performed for 30 min at 37° C. Subsequently the reaction was stopped with 50 μl 1 N HCl.
Extraction of the steroids was performed by addition of 1.0 ml ethyl acetate and vigorous shaking for 1 min. After a centrifugation step (5 min, 2500×g) the organic phase (0.9 ml) was transferred into a fresh cup containing 0.25 ml of incubation buffer and 50 μl 1 N HCl and mixed again. After centrifugation, 0.8 ml ethyl acetate solution was evaporated to dryness in a fresh cup. After that the steroids were redissolved in solvent for HPLC analysis (Hutschenreuter et. al. J. Enz. Inhib. Med. Chem. 2004, 19, 17-32).
The above experiment was conducted at least three times and a mean value for the CYP17 inhibition calculated.

In another assay the target is Human placental CYP19 (Homo sapiens (Human), UniProt P11511). The assay can be described thus: CYP19 (aromatase) assay, human placental microsomes, 3H2O release. It is filed as biochemical. Conditions: substrate androstenedione, 500 nM, inhibitor concentration 500 nM; for inhibition at 0.5 µM: read-out: inhibition (%) CYP 19. How it is done:
The enzyme was obtained from the microsomal fraction of freshly delivered human term placental tissue according to the procedure of Thompson and Siiteri (Thompson, E. A.; Siiteri, P. K. J. Biol. Chem. 1974, 249, 5364).
The isolated microsomes were suspended in a minimum volume of phosphate buffer (0.05 M, pH 7.4, 20% glycerol). Additionally, DTT (dithiothreitol, 10 mM) and EDTA (1 mM) were added to protect the enzyme from degradation. The enzyme preparation was stored at −70° C.
The assay was performed monitoring enzyme activity by measuring the ^3H2O formed from [1β-^3H]androstenedione during aromatization (Hartmann et al. J. Med. Chem. 1986, 29, 1362-1369). […] The test compounds were dissolved in DMSO and diluted with buffer. The final DMSO concentration in the control and inhibitor incubation was 2%. Each tube was pre-incubated for 5 min at 30° C. in a water bath. Microsomal protein was added to start the reaction (0.1 mg). The total volume for each incubation was 0.25 ml. The reaction was terminated by the addition of 200 μl of a cold 1 mM HgCl2 solution. After addition of 200 μl of an aqueous dextran-coated charcoal (DCC) suspension (2%), the vials were shaken for 20 min and centrifuged at 1500×g for 5 min to separate the charcoal-absorbed steroids. The supernatant was assayed for ^3H2O by counting in a scintillation mixture using a β-counter. The calculation of the IC50 values was performed by plotting the percent inhibition vs. the concentration of inhibitor on a semi-log plot.
The above experiment was conducted at least three times and a mean value for the CYP19 inhibition calculated.

Another assay has as its target human CYP11B1 (Homo sapiens (Human), UniProt P15538). The assay can be described thus: Cellular assay for CYP11B1 inhibition (V79MZh11B1 hamster fibroblasts, substrate 11-deoxycorticosterone). Conditions: for sf: selectivity factor: IC50 (CYP11B2)/IC50 (CYP11B1): ratio IC50 (CYP11B2)/IC50 (CYP11B1); for IC50: read-out: IC50 value CYP11B1, Hamster fibroblasts expressing human CYP11B1, substrate 11-deoxycorticosterone, 100 nM, mean of at least three experiments.

For a further assay, the target named is human CYP11B2 (Homo sapiens (Human), UniProt P19099). The assay can be described thus: Cellular assay for CYP11B2 inhibition (V79MZh11B2 hamster fibroblasts, substrate 11-deoxycorticosterone). Conditions: read-out: IC50 value CYP11B2, Hamster fibroblasts expressing human CYP11B2, 100 nM, mean of at least three experiments, n.i. = no inhibition at an inhibitor concentration of 500 nM.
human CYP11B2, sequence (P19099 25-503): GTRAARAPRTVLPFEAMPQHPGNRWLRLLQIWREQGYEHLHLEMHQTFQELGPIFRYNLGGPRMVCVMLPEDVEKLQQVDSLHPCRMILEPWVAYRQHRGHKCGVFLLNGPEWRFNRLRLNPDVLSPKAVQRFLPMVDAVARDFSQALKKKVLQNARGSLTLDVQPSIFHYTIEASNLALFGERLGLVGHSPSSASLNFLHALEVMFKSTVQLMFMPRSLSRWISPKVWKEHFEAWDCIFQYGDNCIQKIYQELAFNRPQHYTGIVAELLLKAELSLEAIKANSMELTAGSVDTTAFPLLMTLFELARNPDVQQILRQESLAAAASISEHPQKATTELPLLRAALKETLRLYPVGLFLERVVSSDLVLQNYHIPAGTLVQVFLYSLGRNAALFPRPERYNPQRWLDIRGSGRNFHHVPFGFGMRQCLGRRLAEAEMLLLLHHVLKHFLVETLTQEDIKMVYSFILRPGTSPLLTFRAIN

human CYP11B1, sequence (P15538 25-503): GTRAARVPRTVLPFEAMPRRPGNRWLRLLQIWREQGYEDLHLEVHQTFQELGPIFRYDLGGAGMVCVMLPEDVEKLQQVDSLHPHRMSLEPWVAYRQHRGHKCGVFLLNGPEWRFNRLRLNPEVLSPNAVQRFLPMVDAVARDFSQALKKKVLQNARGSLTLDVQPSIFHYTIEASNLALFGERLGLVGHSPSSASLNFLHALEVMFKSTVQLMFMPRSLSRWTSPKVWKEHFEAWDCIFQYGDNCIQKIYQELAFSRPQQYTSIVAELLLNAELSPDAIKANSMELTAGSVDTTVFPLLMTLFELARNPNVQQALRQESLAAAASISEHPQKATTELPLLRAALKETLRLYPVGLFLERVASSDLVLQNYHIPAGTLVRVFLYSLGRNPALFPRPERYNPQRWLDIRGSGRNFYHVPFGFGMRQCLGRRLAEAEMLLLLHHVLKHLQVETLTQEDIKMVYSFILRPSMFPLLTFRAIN
Human placental CYP19, sequence (P11511 whole entry): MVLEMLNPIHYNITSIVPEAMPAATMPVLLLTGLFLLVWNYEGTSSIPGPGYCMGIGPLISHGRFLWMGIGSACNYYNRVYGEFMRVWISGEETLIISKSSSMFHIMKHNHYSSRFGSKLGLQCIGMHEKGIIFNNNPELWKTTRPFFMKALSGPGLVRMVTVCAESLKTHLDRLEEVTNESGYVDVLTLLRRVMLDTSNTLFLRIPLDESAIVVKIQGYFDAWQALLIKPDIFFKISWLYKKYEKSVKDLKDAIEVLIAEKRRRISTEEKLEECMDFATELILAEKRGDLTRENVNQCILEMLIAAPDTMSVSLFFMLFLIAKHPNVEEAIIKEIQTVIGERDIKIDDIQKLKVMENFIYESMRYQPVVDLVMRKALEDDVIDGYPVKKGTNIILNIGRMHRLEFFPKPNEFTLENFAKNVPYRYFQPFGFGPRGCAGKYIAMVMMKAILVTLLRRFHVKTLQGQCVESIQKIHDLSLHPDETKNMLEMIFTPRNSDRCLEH
human CYP17, sequence (P05093 whole entry): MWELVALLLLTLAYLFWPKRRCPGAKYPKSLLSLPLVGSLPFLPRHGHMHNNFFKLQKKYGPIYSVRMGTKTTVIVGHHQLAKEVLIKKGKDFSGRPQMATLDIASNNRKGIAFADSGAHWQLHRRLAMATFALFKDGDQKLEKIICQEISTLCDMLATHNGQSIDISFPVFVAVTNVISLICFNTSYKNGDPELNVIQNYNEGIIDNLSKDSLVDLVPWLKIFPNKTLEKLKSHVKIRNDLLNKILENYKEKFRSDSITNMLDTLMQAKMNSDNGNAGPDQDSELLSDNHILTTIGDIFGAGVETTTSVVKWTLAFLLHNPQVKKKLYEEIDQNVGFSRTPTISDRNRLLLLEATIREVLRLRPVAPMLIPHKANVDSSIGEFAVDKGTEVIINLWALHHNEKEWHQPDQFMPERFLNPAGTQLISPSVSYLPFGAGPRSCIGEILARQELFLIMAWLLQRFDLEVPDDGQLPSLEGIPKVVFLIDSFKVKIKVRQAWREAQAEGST

For `c1csc(-c2ccc(Cn3ccnc3)cn2)c1` [Compound 31, 5-Imidazol-1-ylmethyl-2-thiophen-2-yl-pyridine], the inhibition at 2 µM on human CYP17 is 8%. The inhibition at 0.5 µM at Human placental CYP19 came out at 3%. Also, the “sf: selectivity factor: IC50 (CYP11B2)/IC50 (CYP11B1)” value (shortened to “sf: selectivity factor: IC50”) at human CYP11B1 is 17. Further, the results for the IC50 on human CYP11B1 and on human CYP11B2 were 0.075 µM and 1.24 µM, respectively.

With `c1cn(Cc2ccc(-c3ccsc3)nc2)cn1` [Compound 32, 5-Imidazol-1-ylmethyl-2-thiophen-3-yl-pyridine], the inhibition at 2 µM on human CYP17 was 3%. Moreover, the inhibition at 0.5 µM on Human placental CYP19 came out at 0%. Moreover, the “sf: selectivity factor: IC50” value on human CYP11B1 is listed as 26. Also, the IC50 at human CYP11B1 was 0.126 µM; at human CYP11B2 it was 3.27 µM.

As to `O=Cc1ccc(-c2ccc(Cn3ccnc3)cn2)s1` [Compound 34, 5-(5-Imidazol-1-ylmethyl-pyridin-2-yl)-thiophene-2-carbaldehyde], the inhibition at 2 µM on human CYP17 stood at 5%. Moreover, on Human placental CYP19, the inhibition at 0.5 µM stood at 0%. In addition, the “sf: selectivity factor: IC50” value at human CYP11B1 was found to be 16. In addition, the IC50 turned out to be 0.062 µM at human CYP11B1 and 0.968 µM on human CYP11B2.

Consider `c1ccc(-c2cc(Cn3ccnc3)cnc2-c2ccccc2)cc1` [Compound 35, 5-Imidazol-1-ylmethyl-2,3-diphenyl-pyridine], for which, at human CYP17, the “inhibition (%) CYP 17” value is listed as 5%. Also, the “inhibition (%) CYP 19” value against Human placental CYP19 was found to be 30%. At human CYP11B1, the “sf: selectivity factor: IC50” value is 6 and the IC50 turned out to be 0.073 µM. Further, the IC50 on human CYP11B2 was 0.416 µM.

For the compound `c1csc(-c2ncccc2Cn2ccnc2)c1` [Compound 36, 3-Imidazol-1-ylmethyl-2-thiophen-2-yl-pyridine], on human CYP17, the inhibition at 2 µM amounted to 0%. The inhibition at 0.5 µM on Human placental CYP19 came to 19%. For the same compound, at human CYP11B1, the “sf: selectivity factor: IC50” value amounted to 16 and the IC50 was found to be 0.016 µM. Besides, at human CYP11B2, the IC50 stood at 0.251 µM.

`c1ccc2c(-c3ccc(Cn4ccnc4)cn3)csc2c1` [Compound 38, 2-Benzo[b]thiophen-3-yl-5-imidazol-1-ylmethyl-pyridine]: the inhibition at 2 µM at human CYP17 worked out at 4%. For the same compound, the inhibition at 0.5 µM at Human placental CYP19 amounted to 0%. Also, the “sf: selectivity factor: IC50” value on human CYP11B1 is on record as 29. For the same compound, the results for the IC50 on human CYP11B1 and on human CYP11B2 were 0.04 µM and 1.16 µM, respectively.

In the case of `c1coc(-c2ccc(Cn3ccnc3)cn2)c1` [Compound 39, 2-Furan-2-yl-5-imidazol-1-ylmethyl-pyridine], at human CYP17, the inhibition at 2 µM was 1%. For the same compound, the inhibition at 0.5 µM at Human placental CYP19 came out at 0%. In addition, at human CYP11B1, the “sf: selectivity factor: IC50” value is given as 31 and the IC50 stood at 0.167 µM. The IC50 on human CYP11B2 worked out at 5.16 µM.

In the case of `c1cn(Cc2ccc(-c3ccoc3)nc2)cn1` [Compound 40, 2-Furan-3-yl-5-imidazol-1-ylmethyl-pyridine], the inhibition at 2 µM at human CYP17 turned out to be 8%. The inhibition at 0.5 µM at Human placental CYP19 was 0%. Besides, on human CYP11B1, the “sf: selectivity factor: IC50” value is 37 and the IC50 turned out to be 0.076 µM. Further, the IC50 at human CYP11B2 is 2.83 µM.

As to `c1coc(-c2cc(Cn3ccnc3)cnc2-c2ccco2)c1` [Compound 42, 2,3-Di-furan-2-yl-5-imidazol-1-ylmethyl-pyridine], at human CYP17, the inhibition at 2 µM turned out to be 6.7%. Besides, at Human placental CYP19, the inhibition at 0.5 µM is 2.2%. The “sf: selectivity factor: IC50” value on human CYP11B1 is on record as 29. Besides, the results for the IC50 at human CYP11B1 and on human CYP11B2 were 0.029 µM and 0.83 µM, respectively.
